Experiment: In vivo metabolism, quantification of radiometabolites by radio-HPLC in brain and plasma
Design: species or system mouse
Settings: female CD-1 mice, 30 min p.i., i.v.
Description: The good in vitro results obtained for [^18F]RM365 justified its further evaluation in vivo, and we proceeded with the investigation of radioligand metabolism in mouse. The brain as well as blood samples were obtained from two female CD-1 mice 30 min after intravenous administration of [^18F]RM365. About 90% of the radioactivity detected in the brain samples accounted for intact radioligand (Figure 8), while in blood plasma, the fraction of the intact radioligand represented only 55% of the detected radioactivity (Figure 8B). Accordingly, the absence of a significant fraction of radiometabolites of [^18F]RM365 in the brain indicates the suitability of this radioligand for neuroimaging.
Figure 8 In vivo metabolism of [^18F]RM365. […]
The samples were further processed for subsequent radio-chromatographic analyses. […] The activities of supernatants and precipitates were measured in an γ-counter (1480 WIZARD, Fa. PerkinElmer), and the extraction efficiencies were calculated as the ratio of the radioactivity in the supernatant to the radioactivity in the original sample (supernatant + precipitate). The supernatants from both extractions were combined, concentrated at 70 °C under an argon stream up to a remaining volume of 100 μL, and subsequently analyzed by analytical radio-HPLC with a gradient system as applied in Section 5.2.2.

intact radioligand, fraction of radioactivity in blood plasma: 55%
Structure (SMILES): CC1(C)Cc2ccc(C#N)cc2[C@@H]1NC(=O)c1cc2cc([18F])ccc2[nH]1 [[^18F]RM365]

— article PMC10614203, “Synthesis, Structure–Activity Relationships, Radiofluorination, and Biological Evaluation of [^18F]RM365, a Novel Radioligand for Imaging the Human Cannabinoid Receptor Type 2 (CB2R) in the Brain with PET” (Journal of Medicinal Chemistry, 2023)
